Results as given in patent publication US8729082B2, “Substituted imidazoquinoxalines” (Bayer Intellectual Property GmbH, priority 2009, dated 2014).

Each compound was assayed against T1, human kinase Mps-1 (Homo sapiens, UniProt P33981) (assay: Mps-1 kinase assay (HTRF)). Conditions: lowATP; mean; read-out: Mps1 lowATP mean IC50.
T1 construct: N-terminally GST-tagged human full length recombinant Mps-1 kinase; purchased Invitrogen, Karslruhe, Germany PV4071
T1 sequence (P33981 1-857): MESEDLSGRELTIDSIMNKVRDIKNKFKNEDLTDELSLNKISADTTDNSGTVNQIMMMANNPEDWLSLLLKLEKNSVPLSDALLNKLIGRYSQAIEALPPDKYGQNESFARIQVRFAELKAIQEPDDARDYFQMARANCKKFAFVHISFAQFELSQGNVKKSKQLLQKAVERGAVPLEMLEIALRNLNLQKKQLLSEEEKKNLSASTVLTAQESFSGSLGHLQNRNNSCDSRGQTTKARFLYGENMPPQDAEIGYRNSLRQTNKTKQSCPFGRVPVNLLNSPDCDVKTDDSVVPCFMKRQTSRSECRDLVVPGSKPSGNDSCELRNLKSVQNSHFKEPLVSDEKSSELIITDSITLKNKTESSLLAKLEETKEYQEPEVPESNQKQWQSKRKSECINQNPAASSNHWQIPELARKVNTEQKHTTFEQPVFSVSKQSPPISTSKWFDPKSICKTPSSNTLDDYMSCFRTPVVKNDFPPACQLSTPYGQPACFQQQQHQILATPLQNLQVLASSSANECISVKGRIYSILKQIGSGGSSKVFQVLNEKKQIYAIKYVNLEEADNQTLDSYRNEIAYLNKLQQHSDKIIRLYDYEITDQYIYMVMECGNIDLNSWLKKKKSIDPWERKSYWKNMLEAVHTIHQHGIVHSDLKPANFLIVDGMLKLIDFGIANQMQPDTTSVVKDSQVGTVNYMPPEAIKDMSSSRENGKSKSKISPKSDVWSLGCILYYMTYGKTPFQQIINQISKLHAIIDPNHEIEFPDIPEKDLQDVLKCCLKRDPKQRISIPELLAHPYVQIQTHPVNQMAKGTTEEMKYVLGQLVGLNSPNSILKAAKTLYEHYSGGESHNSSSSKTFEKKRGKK
Format: biochemical
How it was run: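 HTRF readout: EDTA-stopped reactions incubated 1 h with europium anti-phospho(Ser/Thr) antibody and streptavidin-XLent, emission ratio 665/620 nm after 350 nm excitation. Kinase step: compound pre-bound 15 min to ~1 nM GST-Mps-1, then 60 min at 22 °C with ATP and biotin-peptide substrate; inhibition scaled between no-inhibitor (0%) and no-enzyme (100%) controls.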

Row | SMILES | IC50 [µM]
1 | O=C(NC1CC1)c1ccc(-c2cnc3c(NCCc4ccc(F)cc4)nc4ccccc4n23)cc1 [Example 2-35, N-cyclopropyl-4-(4-{[2-(4-fluorophenyl)ethyl]amino}imidazo[1,2-a]quinoxalin-1-yl)benzamide] | 0.539
2 | O=C(NC1CC1)c1ccc(-c2cnc3c(NCCc4cccnc4)nc4ccccc4n23)cc1 [Example 2-36, N-cyclopropyl-4-(4-{[2-(pyridin-3-yl)ethyl]amino}imidazo[1,2-a]quinoxalin-1-yl)benzamide] | 0.129
3 | CCCNc1nc2ccc(F)cc2n2c(-c3ccc(C(=O)NC4CC4)cc3)cnc12 [Example 2-40, N-cyclopropyl-4-[8-fluoro-4-(propylamino)imidazo[1,2-a]quinoxalin-1-yl]benzamide] | 0.0285
4 | CC(C)CCNc1nc2ccc(F)cc2n2c(-c3ccc(C(=O)NC4CC4)cc3)cnc12 [Example 2-43, N-cyclopropyl-4-{8-fluoro-4-[(3-methylbutyl)amino]imidazo[1,2-a]quinoxalin-1-yl}benzamide] | 0.0359
5 | O=C(NC1CC1)c1ccc(-c2cnc3c(NCCCN4CCCC4=O)nc4ccc(F)cc4n23)cc1 [Example 2-44, N-cyclopropyl-4-(8-fluoro-4-{[3-(2-oxopyrrolidin-1-yl)propyl]amino}imidazo[1,2-a]quinoxalin-1-yl)benzamide] | 0.325
6 | O=C(NC1CC1)c1ccc(-c2cnc3c(NCc4ccc(F)cc4)nc4ccc(F)cc4n23)cc1 [Example 2-46, N-cyclopropyl-4-{8-fluoro-4-[(4-fluorobenzyl)amino]imidazo[1,2-a]quinoxalin-1-yl}benzamide] | 0.0768
7 | O=C(NC1CC1)c1ccc(-c2cnc3c(NCCCCO)nc4ccc(F)cc4n23)cc1 [Example 2-47, N-cyclopropyl-4-{8-fluoro-4-[(4-hydroxybutyl)amino]imidazo[1,2-a]quinoxalin-1-yl}benzamide] | 0.0664
8 | CCNc1nc2ccc(F)cc2n2c(-c3ccc(C(=O)NC4CC4)cc3)cnc12 [Example 2-49, N-cyclopropyl-4-[4-(ethylamino)-8-fluoroimidazo[1,2-a]quinoxalin-1-yl]benzamide] | 0.0876
9 | O=C(NC1CC1)c1ccc(-c2cnc3c(NCCCO)nc4ccc(F)cc4n23)cc1 [Example 2-50, N-cyclopropyl-4-{8-fluoro-4-[(3-hydroxypropyl)amino]imidazo[1,2-a]quinoxalin-1-yl}benzamide] | 0.154
10 | CCCCNc1nc2ccc(F)cc2n2c(-c3ccc(C(=O)NC4CC4)cc3)cnc12 [Example 2-51, 4-[4-(butylamino)-8-fluoroimidazo[1,2-a]quinoxalin-1-yl]-N-cyclopropylbenzamide] | 0.0392
11 | O=C(NC1CC1)c1ccc(-c2cnc3c(NCC4CC4)nc4ccc(F)cc4n23)cc1 [Example 2-52, N-cyclopropyl-4-{4-[(cyclopropylmethyl)amino]-8-fluoroimidazo[1,2-a]quinoxalin-1-yl}benzamide] | 0.0482
12 | O=C(NC1CC1)c1ccc(-c2cnc3c(NCc4ccccn4)nc4ccc(F)cc4n23)cc1 [Example 2-53, N-cyclopropyl-4-{8-fluoro-4-[(pyridin-2-ylmethyl)amino]imidazo[1,2-a]quinoxalin-1-yl}benzamide] | 1.05
13 | CC(C)CNc1nc2ccc(F)cc2n2c(-c3ccc(C(=O)NC4CC4)cc3)cnc12 [Example 2-55, N-cyclopropyl-4-{8-fluoro-4-[(2-methylpropyl)amino]imidazo[1,2-a]quinoxalin-1-yl}benzamide] | 0.0283
14 | NC(=O)CCNc1nc2ccc(F)cc2n2c(-c3ccc(C(=O)NC4CC4)cc3)cnc12 [Example 2-56, 4-{4-[(3-amino-3-oxopropyl)amino]-8-fluoroimidazo[1,2-a]quinoxalin-1-yl}-N-cyclopropylbenzamide] | 0.378
15 | O=C(NC1CC1)c1ccc(-c2cnc3c(NCC(O)CO)nc4ccc(F)cc4n23)cc1 (stereo not shown) [Example 2-59, N-cyclopropyl-4-{4-[(2,3-dihydroxypropyl)amino]-8-fluoroimidazo[1,2-a]quinoxalin-1-yl}benzamide] | 0.477
16 | CNC(=O)Nc1ccc(-c2cnc3c(NCc4ccccc4F)nc4ccc(F)cc4n23)cc1 [Example 2-62, 1-(4-{8-fluoro-4-[(2-fluorobenzyl)amino]imidazo[1,2-a]quinoxalin-1-yl}phenyl)-3-methylurea] | 17.6

More lines, now with the values ahead:

Row | IC50 [µM] | SMILES
17 | 1.15 | O=C(NC1CC1)c1ccc(-c2cnc3c(NCCN4CCNC4=O)nc4ccccc4n23)cc1 [Example 2-33, N-cyclopropyl-4-(4-{[2-(2-oxoimidazolidin-1-yl)ethyl]amino}imidazo[1,2-a]quinoxalin-1-yl)benzamide]
18 | 0.287 | N#Cc1ccc(CNc2nc3ccccc3n3c(-c4ccc(C(=O)NC5CC5)cc4)cnc23)cc1 [Example 2-34, 4-{4-[(4-cyanobenzyl)amino]imidazo[1,2-a]quinoxalin-1-yl}-N-cyclopropylbenzamide]
19 | 1.05 | Cn1ccc(Nc2nc3ccccc3n3c(-c4ccc(C(=O)NC5CC5)cc4)cnc23)n1 [Example 2-37, N-cyclopropyl-4-{4-[(1-methyl-1H-pyrazol-3-yl)amino]imidazo[1,2-a]quinoxalin-1-yl}benzamide]
20 | 0.0422 | NS(=O)(=O)CCNc1nc2ccccc2n2c(-c3ccc(C(=O)NC4CC4)cc3)cnc12 [Example 2-38, N-cyclopropyl-4-{4-[(2-sulfamoylethyl)amino]imidazo[1,2-a]quinoxalin-1-yl}benzamide]
21 | 0.786 | COc1cc(C(=O)NC2CCN(C)CC2)ccc1Nc1nc2ccccc2n2c(-c3ccc(C(=O)NC4CC4)cc3)cnc12 [Example 2-39, 4-({1-[4-(cyclopropylcarbamoyl)phenyl]imidazo[1,2-a]quinoxalin-4-yl}amino)-3-methoxy-N-(1-methylpiperidin-4-yl)benzamide]
22 | 0.212 | O=C(NC1CC1)c1ccc(-c2cnc3c(NCCO)nc4ccc(F)cc4n23)cc1 [Example 2-41, N-cyclopropyl-4-{8-fluoro-4-[(2-hydroxyethyl)amino]imidazo[1,2-a]quinoxalin-1-yl}benzamide]
23 | 0.335 | O=C(NC1CC1)c1ccc(-c2cnc3c(NCCCN4CCOCC4)nc4ccc(F)cc4n23)cc1 [Example 2-42, N-cyclopropyl-4-(8-fluoro-4-{[3-(morpholin-4-yl)propyl]amino}imidazo[1,2-a]quinoxalin-1-yl)benzamide]
24 | 0.255 | COCCNc1nc2ccc(F)cc2n2c(-c3ccc(C(=O)NC4CC4)cc3)cnc12 [Example 2-45, N-cyclopropyl-4-{8-fluoro-4-[(2-methoxyethyl)amino]imidazo[1,2-a]quinoxalin-1-yl}benzamide]
25 | 0.0403 | O=C(NC1CC1)c1ccc(-c2cnc3c(NCc4cccs4)nc4ccc(F)cc4n23)cc1 [Example 2-48, N-cyclopropyl-4-{8-fluoro-4-[(thiophen-2-ylmethyl)amino]imidazo[1,2-a]quinoxalin-1-yl}benzamide]
26 | 0.0985 | O=C(NC1CC1)c1ccc(-c2cnc3c(NCc4cccnc4)nc4ccc(F)cc4n23)cc1 [Example 2-54, N-cyclopropyl-4-{8-fluoro-4-[(pyridin-3-ylmethyl)amino]imidazo[1,2-a]quinoxalin-1-yl}benzamide]
27 | 0.177 | COCCCNc1nc2ccc(F)cc2n2c(-c3ccc(C(=O)NC4CC4)cc3)cnc12 [Example 2-57, N-cyclopropyl-4-{8-fluoro-4-[(3-methoxypropyl)amino]imidazo[1,2-a]quinoxalin-1-yl}benzamide]
28 | 0.105 | Cn1cc(CNc2nc3ccc(F)cc3n3c(-c4ccc(C(=O)NC5CC5)cc4)cnc23)cn1 [Example 2-58, N-cyclopropyl-4-(8-fluoro-4-{[(1-methyl-1H-pyrazol-4-yl)methyl]amino}imidazo[1,2-a]quinoxalin-1-yl)benzamide]
29 | 12.8 | CNC(=O)Nc1ccc(-c2cnc3c(NCCCN4CCCC4=O)nc4ccc(F)cc4n23)cc1 [Example 2-60, 1-[4-(8-fluoro-4-{[3-(2-oxopyrrolidin-1-yl)propyl]amino}imidazo[1,2-a]quinoxalin-1-yl)phenyl]-3-methylurea]
30 | 7.22 | CNC(=O)Nc1ccc(-c2cnc3c(NCCOC)nc4ccc(F)cc4n23)cc1 [Example 2-61, 1-(4-{8-fluoro-4-[(2-methoxyethyl)amino]imidazo[1,2-a]quinoxalin-1-yl}phenyl)-3-methylurea]
31 | 1.63 | CNC(=O)Nc1ccc(-c2cnc3c(NCCCCO)nc4ccc(F)cc4n23)cc1 [Example 2-63, 1-(4-{8-fluoro-4-[(4-hydroxybutyl)amino]imidazo[1,2-a]quinoxalin-1-yl}phenyl)-3-methylurea]
